Structures can show the parent of a compound that is named as a salt. Where two headings read alike, the source gives them in different places.
Columns and labels:
[1] = Body weight and animal number of carrier mice, H460 xenograft test; format: in vivo, BALB/c immunodeficient nude mice; details: for Animal No. end: 7 at beginning
Description: (§1) To evaluate the in vivo anticancer efficacy of COMPOUND O, H460 human non-small cell lung Cancer xenograft models in immunodeficient nude mice was used. The cell line and mice were maintained in the Pharmacology Lab of ACEA Bio (Hangzhou) CO., Ltd. The BALB/c immunodeficient nude mice were purchased from Shanghai SLAC Laboratory Animal, certification number: SCXKA (Shanghai) 2007-0005. The mouse weight was between 19±2 g. Only female mice were used in this study. The numbers of animals tested were as follows: 7 for each dose group, 7 for positive control group and 7 for negative control group.
(§2) Test Control. For negative control, each mouse was administered orally with the solvent only having the same volume and same concentration as those used in COMPOUND O test, 120 mg/kg once every other day (qod) for 25 days. For positive control, an oral anticancer compound, Etoposide was administered orally at 30 mg/kg qod for 25 days.
(§3) Preparation an Administration of Test Compounds. COMPOUND O was dissolved in 25% phospholipid (S75) and 75% polyvinylpyrrolidone (PL-PVP) then further diluted to 8 mg/ml in 0.9% NaCl aqueous solution. Each mouse was administered orally with the compound solution. Different dosages of COMPOUND O (120 mg/kg qod and 160 mg/kg q3d) were used in the study.
(§4) All used materials including animal food, animal cage, supporting materials and apparatus contacted by animals, were high-pressure sterilized. Nude mice were maintained in laminar flow shelves under SPF condition. After tumor transplantation, mouse weight and tumor size in each compound dosage group were dynamically monitored and plotted. The tumor size was determined by measuring the major axis (a) and minor axis (b) of the tumor, and tumor volume was calculated according to the formula (2) in Example 1.

[2] = tested on: A549 human lung cancer cells; assay: Cell Death Detection ELISA, apoptosis; format: cell-based; details: 37 nM, 24 hr, 48 hr, 72 hr
Experimental: To test if COMPOUND O compound induces apoptosis in cancer cells, the A549 human lung cancer cells were treated with 37 nM COMPOUND O and 37 nM paclitaxel. Cell apoptosis and death detection was measured by Cell Death Detection ELISA kit (Roche Applied Sciences), according to the assay protocol from the kit. Briefly, 5000 cells were seeded into each well of the 96-well plate. […] Cells were harvested and lysed 24 hr, 48 hr or 72 hr post drug treatment. Twenty microliters of lysate were removed and transferred to streptavidin-coated microplate and then incubated with anti-histone-biotin and anti-DNA-POD antibodies for 2 hr followed by adding 2,2′-azinobis-3-ethylbenzthiazoline-sulphonic-acid substrate for color development. The plate was measured at an absorbance of 405 and 490 nm in a Beckman Multimode DTX880 plate reader.

[3] = Body weight and animal number of carrier mice, A549 xenograft test; format: in vivo, BALB/c immunodeficient nude mice
Description: as §1, with “O, A549” for “O, H460”, “lung cancer” for “lung Cancer”, “between 21±1” for “between 19±2”, “as follow: 7-8” for “as follows: 7”, “group, 6” for “group, 7”
as §2
as §3, with “q2*2 (dosing for 2 consecutive days then off for 2 consecutive days)” for “q3d)”
as §4

[4] = tested on: KB200 cells over-expressing multiple drug resistant (MDR) gene; assay: Inhibition of cell proliferation, xCelligence cell index; format: cell-based; details: Homo sapiens
Description: The biological activity of compounds disclosed herein was monitored and profiled using the Real-Time Cell Electronic Sensing (RT-CES®) system from ACEA Biosciences, Inc. The RT-CES system utilizes cell-substrate impedance technology to monitor cellular behavior inside tissue culture wells in a microtiter plate format. The technology features in the integration of molecular and cell biology with microelectronics and is based on the electronic detection of biological assay process.
For measurement of cell-substrate or cell-electrode impedance using RT-CES technology, microelectrodes having appropriate geometries are fabricated onto the bottom surfaces of microtiter plate or similar device, facing into the wells. Cells are introduced into the wells of the devices, and make contact to and attach to the electrode surfaces. The presence, absence or change of properties of cells affects the electronic and ionic passage on the electrode sensor surfaces. Measuring the impedance between or among electrodes provides important information about biological status of cells present on the sensors. When there are changes to the biological status of the cells analogue electronic readout signals are measured automatically and in real time, and are converted to digital signals for processing and for analysis. In a RT-CES system, a cell index (arbitrary representation of change in impedance) is automatically derived and provided based on measured electrode impedance values. The cell index obtained for a given well reflects: 1) how many cells are attached to the electrode surfaces in this well; 2) how well cells are attached to the electrode surfaces in this well. Thus, the more the cells of same type in similar physiological conditions attach the electrode surfaces, the larger the cell index. And, the better the cells attach to the electrode surfaces (e.g., the cells spread-out more to have larger contact areas, or the cells attach tighter to electrode surfaces), the larger the cell index.
To quantify cell status based on the measured cell-electrode impedance, a parameter termed Cell Index is derived. Cell Index is a quantitative measure of the status of the cells in an electrode-containing well. Under the same physiological conditions, more cells attached on to the electrodes leads to larger cell-electrode resistance value, leading to a larger value for Cell Index. Furthermore, for the same number of cells present in the well, a change in the cell status such as morphology will lead to a change in the Cell Index. […]
The efficacy of these compounds was also tested against KB200 cell over-expressing multiple drug resistant (MDR) gene. […] The cell status was monitored prior to and after the compound addition using xCelligence system (Roche). […]

[5] = 72 hr post compound treatment, read-out: calculated IC50

**Q.** What does the source list for `CCc1ccc(Nc2nc(-c3c(C)nc4sccn34)cs2)cc1` [COMPOUND O, 2-(4-ethylphenyl)amino-4-(6-methylimidazo[2,1-b]thiazol-5-yl)-thiazole monohydrobromide]?
**A.** Animal weight (g) Beginning ([1]; 120 mg/kg ig × 11 qod): 20.04 g; Animal weight (g) end ([1]; 120 mg/kg ig × 11 qod): 17.33 g; Body weight of mice (g) 1 day ([1]; 120 mg/kg ig × 11 qod): 20.04 ± 0.51 g; Body weight of mice (g) 3 day ([1]; 120 mg/kg ig × 11 qod): 19.80 ± 1.18 g; Body weight of mice (g) 7 day ([1]; 120 mg/kg ig × 11 qod): 18.86 ± 0.70 g; Body weight of mice (g) 10 day ([1]; 120 mg/kg ig × 11 qod): 18.20 ± 0.68 g; Body weight of mice (g) 14 day ([1]; 120 mg/kg ig × 11 qod): 18.11 ± 0.49 g; Body weight of mice (g) 17 day ([1]; 120 mg/kg ig × 11 qod): 17.43 ± 0.51 g; Body weight of mice (g) 22 day ([1]; 120 mg/kg ig × 11 qod): 17.24 ± 0.72 g; Body weight of mice (g) 24 day ([1]; 120 mg/kg ig × 11 qod): 17.56 ± 1.21 g; Body weight of mice (g) 25 day ([1]; 120 mg/kg ig × 11 qod): 17.33 ± 1.23 g; Animal No. end ([1]; 120 mg/kg ig × 11 qod): 7/7; Animal weight (g) Beginning ([1]; 160 mg/kg ig × 9 q3d): 20.00 g; Animal weight (g) end ([1]; 160 mg/kg ig × 9 q3d): 16.24 g; Body weight of mice (g) 1 day ([1]; 160 mg/kg ig × 9 q3d): 20.00 ± 0.48 g; Body weight of mice (g) 3 day ([1]; 160 mg/kg ig × 9 q3d): 20.54 ± 0.53 g; Body weight of mice (g) 7 day ([1]; 160 mg/kg ig × 9 q3d): 18.64 ± 0.61 g; Body weight of mice (g) 10 day ([1]; 160 mg/kg ig × 9 q3d): 17.89 ± 0.39 g; Body weight of mice (g) 14 day ([1]; 160 mg/kg ig × 9 q3d): 17.83 ± 0.57 g; Body weight of mice (g) 17 day ([1]; 160 mg/kg ig × 9 q3d): 18.24 ± 0.46 g; Body weight of mice (g) 22 day ([1]; 160 mg/kg ig × 9 q3d): 16.91 ± 0.97 g; Body weight of mice (g) 24 day ([1]; 160 mg/kg ig × 9 q3d): 16.53 ± 1.29 g; Body weight of mice (g) 25 day ([1]; 160 mg/kg ig × 9 q3d): 16.24 ± 1.55 g; Animal No. end ([1]; 160 mg/kg ig × 9 q3d): 7/7; apoptotic signal [2]: strong apoptotic signals (starting from 48 hr post drug treatment); Animal weight (g) Beginning ([3]; 120 mg/kg ig × 14 qod): 20.77 g; Animal weight (g) end ([3]; 120 mg/kg ig × 14 qod): 16.94 g; Body weight of mice (g) 1 day ([3]; 120 mg/kg ig × 14 qod): 20.77 ± 0.68 g; Body weight of mice (g) 4 day ([3]; 120 mg/kg ig × 14 qod): 20.27 ± 0.83 g; Body weight of mice (g) 8 day ([3]; 120 mg/kg ig × 14 qod): 19.57 ± 1.09 g; Body weight of mice (g) 11 day ([3]; 120 mg/kg ig × 14 qod): 18.20 ± 0.59 g; Body weight of mice (g) 15 day ([3]; 120 mg/kg ig × 14 qod): 17.90 ± 0.61 g; Body weight of mice (g) 18 day ([3]; 120 mg/kg ig × 14 qod): 17.90 ± 1.09 g; Body weight of mice (g) 22 day ([3]; 120 mg/kg ig × 14 qod): 17.21 ± 1.20 g; Body weight of mice (g) 25 day ([3]; 120 mg/kg ig × 14 qod): 17.00 ± 1.29 g; Animal No. end ([3]; 120 mg/kg ig × 14 qod, 7 at beginning): 7/7; Animal weight (g) Beginning ([3]; 160 mg/kg ig × 11 q2*2): 21.69 g; Animal weight (g) end ([3]; 160 mg/kg ig × 11 q2*2): 17.97 g; Body weight of mice (g) 1 day ([3]; 160 mg/kg ig × 11 q2*2): 21.69 ± 0.66 g; Body weight of mice (g) 4 day ([3]; 160 mg/kg ig × 11 q2*2): 21.20 ± 0.79 g; Body weight of mice (g) 8 day ([3]; 160 mg/kg ig × 11 q2*2): 19.00 ± 1.48 g; Body weight of mice (g) 11 day ([3]; 160 mg/kg ig × 11 q2*2): 17.78 ± 2.11 g; Body weight of mice (g) 15 day ([3]; 160 mg/kg ig × 11 q2*2): 17.43 ± 1.86 g; Body weight of mice (g) 18 day ([3]; 160 mg/kg ig × 11 q2*2): 18.43 ± 0.90 g; Body weight of mice (g) 22 day ([3]; 160 mg/kg ig × 11 q2*2): 18.70 ± 1.04 g; Body weight of mice (g) 25 day ([3]; 160 mg/kg ig × 11 q2*2): 17.97 ± 0.93 g; Animal No. end ([3]; 160 mg/kg ig × 11 q2*2, 8 at beginning): 8/3; IC50 [4, 5]: 9.84 nM

**Q.** With `COc1cc([C@@H]2c3cc4c(cc3[C@@H](O[C@@H]3O[C@@H]5CO[C@@H](C)O[C@H]5[C@H](O)[C@H]3O)[C@H]3COC(=O)[C@H]23)OCO4)cc(OC)c1O` [Etoposide, reference compound] as the compound, how does the “Animal weight (g) Beginning” value ([1]; 30 mg/kg ig × 13 qod) read?
**A.** 19.97 g

**Q.** And the “Animal weight (g) end” value ([1]; 30 mg/kg ig × 13 qod)?
**A.** 17.13 g

**Q.** And the “Body weight of mice (g) 1 day” value ([1]; 30 mg/kg ig × 13 qod)?
**A.** 19.97 ± 0.88 g

**Q.** What about the “Body weight of mice (g) 3 day” value ([1]; 30 mg/kg ig × 13 qod) of the same compound?
**A.** 19.66 ± 0.75 g

**Q.** And the “Body weight of mice (g) 7 day” value ([1]; 30 mg/kg ig × 13 qod)?
**A.** 19.70 ± 1.38 g

**Q.** And the “Body weight of mice (g) 10 day” value ([1]; 30 mg/kg ig × 13 qod)?
**A.** 19.66 ± 1.10 g

**Q.** What about the “Body weight of mice (g) 14 day” value ([1]; 30 mg/kg ig × 13 qod) of the same compound?
**A.** 18.86 ± 1.07 g

**Q.** And the “Body weight of mice (g) 17 day” value ([1]; 30 mg/kg ig × 13 qod)?
**A.** 18.79 ± 1.17 g

**Q.** And the “Body weight of mice (g) 22 day” value ([1]; 30 mg/kg ig × 13 qod)?
**A.** 17.86 ± 1.35 g

**Q.** And the “Body weight of mice (g) 24 day” value ([1]; 30 mg/kg ig × 13 qod)?
**A.** 17.56 ± 1.44 g

**Q.** And the “Body weight of mice (g) 25 day” value ([1]; 30 mg/kg ig × 13 qod)?
**A.** 17.13 ± 1.14 g

**Q.** And the “Animal No. end” value ([1]; 30 mg/kg ig × 13 qod)?
**A.** 7/7

**Q.** And the “Animal weight (g) Beginning” value ([3]; 30 mg/kg ig × 13 qod)?
**A.** 21.30 g

**Q.** And the “Animal weight (g) end” value ([3]; 30 mg/kg ig × 13 qod)?
**A.** 18.18 g

**Q.** What about the “Body weight of mice (g) 1 day” value ([3]; 30 mg/kg ig × 13 qod) of the same compound?
**A.** 21.30 ± 0.70 g

**Q.** And the “Body weight of mice (g) 4 day” value ([3]; 30 mg/kg ig × 13 qod)?
**A.** 19.38 ± 2.22 g

**Q.** What about the “Body weight of mice (g) 8 day” value ([3]; 30 mg/kg ig × 13 qod) of the same compound?
**A.** 20.53 ± 1.26 g

**Q.** And the “Body weight of mice (g) 11 day” value ([3]; 30 mg/kg ig × 13 qod)?
**A.** 19.62 ± 1.15 g

**Q.** What about the “Body weight of mice (g) 15 day” value ([3]; 30 mg/kg ig × 13 qod) of the same compound?
**A.** 19.63 ± 1.63 g

**Q.** And the “Body weight of mice (g) 18 day” value ([3]; 30 mg/kg ig × 13 qod)?
**A.** 19.48 ± 2.01 g

**Q.** What about the “Body weight of mice (g) 22 day” value ([3]; 30 mg/kg ig × 13 qod) of the same compound?
**A.** 19.10 ± 2.57 g

**Q.** What about the “Body weight of mice (g) 25 day” value ([3]; 30 mg/kg ig × 13 qod) of the same compound?
**A.** 18.18 ± 1.86 g

**Q.** What about the “Animal No. end” value ([3]; 30 mg/kg ig × 13 qod, 6 at beginning) of the same compound?
**A.** 6/6

**Q.** For `CC(=O)O[C@H]1C(=O)[C@@]2(C)[C@H]([C@H](OC(=O)c3ccccc3)[C@]3(O)C[C@H](OC(=O)[C@H](O)[C@@H](NC(=O)c4ccccc4)c4ccccc4)C(C)=C1C3(C)C)[C@]1(OC(C)=O)CO[C@@H]1C[C@@H]2O` [paclitaxel], which apoptotic signal [2] is on record?
**A.** strong apoptotic signals (starting from 48 hr post drug treatment)

**Q.** And the IC50 [4, 5]?
**A.** > 1000 nM

**Q.** What about the IC50 ([4]; read-out: IC50) of the same compound?
**A.** > 1000 nM

— patent publication US20110207751A1, “HETEROCYCLIC COMPOUNDS AND USES AS ANTICANCER AGENTS” (priority 2010, published 2011)
